Assays:
HeLa cells [1] = assay: Luciferase Protein Expression Assay in HeLa Cells; type: cell-based, Human; conditions: LNPs encapsulating Luciferase mRNA, 25 ng per well, N=4 wells; 5 h serum-free then 24 h; ONE-Glo
Method in brief: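 Luminescence output, average RLU across N=4 wells, was measured with ONE-Glo after cell lysis. Before that, HeLa cells were exposed to 25 ng/well luciferase-mRNA nanoparticles (PBS control) for 5 h serum-free, then cultured overnight (24 h) in complete MEM.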

[2] = Encapsulation of mRNA nanoparticles with lipid amines using Ribogreen assay; type: physicochemical
Method in brief: (§1)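 DLS gave size and PDI, and Ribogreen gave encapsulation, for luciferase- or CFTR-mRNA nanoparticles (N:P 4.93). Particles came from IL1/DSPC/cholesterol/PEG-DMG-2K mixed at pH 4, mRNA-loaded, neutralized with TRIS pH 8.12, and then treated with lipid amine SA50 in pH 7.5 buffer.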

[3] = Diameter and PDI from DLS measurements of mRNA nanoparticles with lipid amines; type: physicochemical
Method in brief: as §1

HeLa cells [4] = assay: CFTR Protein Expression Assay in HeLa Cells; type: cell-based, Human; conditions: LNPs encapsulating CFTR mRNA, N=4 wells; 5 h serum-free then 24 h; immunofluorescence vs PBS control
Method in brief: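 Readout is fold-change in per-cell CFTR immunofluorescence intensity (488 nm, confocal imaging) relative to PBS-treated cells, from 4 replicate wells. LNPs encapsulating CFTR mRNA were applied serum-free for 5 h, followed by 24 h in complete medium before PFA fixation.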

[5] = CFTR mRNA nanoparticle with lipid amine
[6] = Luciferase mRNA nanoparticle modified with lipid amine

SMILES | Average Relative Light Units ± Standard Deviation (HeLa cells [1]) [Relative Light Units] | % Encapsulation (Ribogreen) [2, 5] [%] | % Encapsulation (Ribogreen) [2, 6] [%] | Diameter (nm) [3, 5] [nm] | PDI [3, 5] | Diameter (nm) [3, 6] [nm] | PDI [3, 6] | Average fold-change in CFTR signal intensity per cell compared to buffer control ± standard deviation (HeLa cells [4]) [fold-change]
CCC(N)(CC)CCNCCCCN(CCC(N)(CC)CC)C(=O)O[C@H]1CC[C@@]2(C)C(=CC[C@H]3[C@@H]4CC[C@H]([C@H](C)CCCC(C)C)[C@@]4(C)CC[C@@H]32)C1.Cl.Cl.Cl [SA133, (3S,8S,9S,10R,13R,14S,17R)-10,13-dimethyl-17-((R)-6-methylheptan-2-yl)-2,3,4,7,8,9,10,11,12,13,14,15,16,17-tetradecahydro-1H-cyclopenta[a]phenanthren-3-yl (3-amino-3-ethylpentyl)(4-((3-amino-3-ethylpentyl)amino)butyl)carbamate trihydrochloride] | 26696.2 ± 5831.4 | 99.4 | 99.0 | 73.5 | 0.11 | 73 | 0.17 | 18.5 ± 0.8
CC(C)CCC[C@@H](C)[C@H]1CC[C@H]2[C@@H]3CC=C4C[C@@H](OC(=O)CCCC(=O)N(CCCN)CCCCCCCCN)CC[C@]4(C)[C@H]3CC[C@]12C.Cl.Cl [SA134, (3S,8S,9S,10R,13R,14S,17R)-10,13-dimethyl-17-((R)-6-methylheptan-2-yl)-2,3,4,7,8,9,10,11,12,13,14,15,16,17-tetradecahydro-1H-cyclopenta[a]phenanthren-3-yl 5-((8-aminooctyl)(3-aminopropyl)amino)-5-oxopentanoate dihydrochloride] | 29194.3 ± 6336.9 | 98.7 | 99.5 | 74.1 | 0.10 | 72 | 0.13 | 17.7 ± 0.9
CC[C@H](CC[C@@H](C)[C@H]1CC[C@H]2[C@@H]3CC=C4C[C@@H](OC(=O)CCCC(=O)N(CCCN)CCCCCCCCN)CC[C@]4(C)[C@H]3CC[C@]12C)C(C)C.Cl.Cl [SA135, (3S,8S,9S,10R,13R,14S,17R)-17-((2R,5R)-5-ethyl-6-methylheptan-2-yl)-10,13-dimethyl-2,3,4,7,8,9,10,11,12,13,14,15,16,17-tetradecahydro-1H-cyclopenta[a]phenanthren-3-yl 5-((8-aminooctyl)(3-aminopropyl)amino)-5-oxopentanoate dihydrochloride] | 27499.8 ± 7269.5 | 98.0 | 99.3 | 73.5 | 0.11 | 71 | 0.12 | 16.6 ± 1.5
CC[C@H](CC[C@@H](C)[C@H]1CC[C@H]2[C@@H]3CC=C4C[C@@H](OC(=O)CCCC(=O)N(CCCCNCCC(C)N)CCC(C)N)CC[C@]4(C)[C@H]3CC[C@]12C)C(C)C.Cl.Cl.Cl (stereo partly drawn) [SA136, (3S,8S,9S,10R,13R,14S,17R)-17-((2R,5R)-5-ethyl-6-methylheptan-2-yl)-10,13-dimethyl-2,3,4,7,8,9,10,11,12,13,14,15,16,17-tetradecahydro-1H-cyclopenta[a]phenanthren-3-yl 5-((3-aminobutyl)(4-((3-aminobutyl)amino)butyl)amino)-5-oxopentanoate trihydrochloride] | 16245.8 ± 6554.6 | 97.7 | 99.7 | 76.9 | 0.13 | 75 | 0.16 | 15.8 ± 1.4
CC[C@H](CC[C@@H](C)[C@H]1CC[C@H]2[C@@H]3CC=C4C[C@@H](OC(=O)CCCC(=O)N(CCCCNCCC(C)(C)N)CCC(C)(C)N)CC[C@]4(C)[C@H]3CC[C@]12C)C(C)C.Cl.Cl.Cl [SA137, (3S,8S,9S,10R,13R,14S,17R)-17-((2R,5R)-5-ethyl-6-methylheptan-2-yl)-10,13-dimethyl-2,3,4,7,8,9,10,11,12,13,14,15,16,17-tetradecahydro-1H-cyclopenta[a]phenanthren-3-yl 5-((3-amino-3-methylbutyl)(4-((3-amino-3-methylbutyl)amino)butyl)amino)-5-oxopentanoate trihydrochloride] | 15239.8 ± 6248.1 | 98.3 | 99.6 | 76.3 | 0.13 | 79 | 0.20 | 14.0 ± 0.8
CC(C)CCC[C@@H](C)[C@H]1CC[C@H]2[C@@H]3CC=C4C[C@@H](SSCCC(=O)N(CCCCNCCC(C)(C)N)CCC(C)(C)N)CC[C@]4(C)[C@H]3CC[C@]12C.Cl.Cl.Cl [SA138, N-(3-amino-3-methylbutyl)-N-(4-((3-amino-3-methylbutyl)amino)butyl)-3-(((3S,8S,9S,10R,13R,14S,17R)-10,13-dimethyl-17-((R)-6-methylheptan-2-yl)-2,3,4,7,8,9,10,11,12,13,14,15,16,17-tetradecahydro-1H-cyclopenta[a]phenanthren-3-yl)disulfaneyl)propanamide trihydrochloride] | 22039.8 ± 8550.1 | 96.4 | 99.2 | 89.6 | 0.12 | 72 | 0.19 | 12.1 ± 1.1
CC(C)CCC[C@@H](C)[C@H]1CC[C@H]2[C@@H]3CC=C4C[C@@H](SSCCC(=O)N(CCCCCCCC(C)(C)N)CCC(C)(C)N)CC[C@]4(C)[C@H]3CC[C@]12C.Cl.Cl [SA139, N-(3-amino-3-methylbutyl)-N-(8-amino-8-methylnonyl)-3-(((3S,8S,9S,10R,13R,14S,17R)-10,13-dimethyl-17-((R)-6-methylheptan-2-yl)-2,3,4,7,8,9,10,11,12,13,14,15,16,17-tetradecahydro-1H-cyclopenta[a]phenanthren-3-yl)disulfaneyl)propanamide dihydrochloride] | 24497.9 ± 3998.9 | 99.4 | 99.4 | 68.9 | 0.12 | 72 | 0.12 | 13.3 ± 1.2
